90 compounds from a melting point compilation (Tetko et al.; mined from patent text by program, amines drawn as free bases though some values may be those of a salt) can be followed below.

By melting point is commonly meant the temperature of the solid-liquid transition. With `CC(=O)OCC(C(OC(C)=O)c1ccc(Br)cc1)[N+](=O)[O-]` (stereo not given), the melting point lay in the range of 81 to 82 °C.

`O=C(O)COc1ccc(OCCCCc2ccccc2)cc1` yielded a melting point of 116 to 117 °C.

Compound `O=C1N(Cc2ccc3c(c2)OCCO3)c2ccccc2C12COc1cc3c(cc12)CCO3` (stereo not given) displayed a melting point of 173 to 175 °C.

In the case of `NC(=O)C(CCc1cc(Cl)ccc1N1CCCCC1)c1ccc(C(=O)O)cc1` (stereo not given), the melting point was 192 to 195 °C.

Turning to `O=C1CN2Cc3ccccc3N=C2N1`, the melting point was more than 285 °C.

Compound `CC(C)n1nc(C#Cc2cccc(Cl)c2)ccc1=O` yielded a melting point of 94 to 95 °C.

In turn, `COc1nc2cc(Cl)c(C)c(NS(C)(=O)=O)c2nc1OC` showed a melting point of 228 to 229 °C.

`COC(=O)CCSSN=C1C(=O)N(C)C(=O)N1c1ccccc1F`: the melting point was 81 to 84.5 °C.

As to `COc1cc(C)c(N)c(C)c1Cc1ccc(C(C)C)cc1`, the melting point was 91 to 92 °C.

Turning to `Cn1nnnc1SCCCCCCCCSc1nnnn1C`, the melting point fell in the range of 52 to 54 °C.

`O=c1[nH]c(=O)n(C2CC(O)C(CO)O2)cc1C=CBr` (stereo not given) displayed a melting point of 165 to 166 °C.

As to `CS(=O)(=O)c1cc(Br)ccc1CN1C(=O)c2ccccc2C1=O`, the melting point fell in the range of 188 to 190 °C.

Compound `CN(c1cccc2cc(-c3nccs3)[nH]c12)S(=O)(=O)c1ccsc1CO` displayed a melting point of 192 °C.

For `CCCc1nc(-c2cccnc2)cnc1NN`, the melting point was 162 to 163 °C.

In turn, `CC1CC2=CC(=O)CCC2C2C(F)CC3(C)C(O)CCC3C12` (stereo not given) registered a melting point of 127 °C.

Consider `Cc1ccc(-c2cc(N3CCC(C(N)=O)CC3)c3ccccc3n2)cc1`, for which the melting point lay within 230 to 232 °C.

Compound `CC1(C)Oc2ccc(C#N)cc2[C@@H](NC2=C(Cl)C(=O)CC2)[C@@H]1O` (relative stereo) displayed a melting point of 288 to 289 °C.

Regarding `Cc1ccc(C)c(OCCCC(C)(C)C(=O)Nc2cccc(-c3nnc(C)o3)c2)c1`, the melting point fell in the range of 90 to 92 °C.

In the case of `O=C(Nc1ccc(F)cc1F)Nc1cnc2cc3c(cc2c1-c1ccccc1Cl)CCC3`, the melting point is 247 to 248 °C.

For the compound `COC1COC(c2ccccc2)OC1` (stereo not given), the melting point turned out to be 51 °C.

As to `CCc1nc2c(N)nc3ccccc3c2n1CC#Cc1ccc([N+](=O)[O-])cc1`, the melting point lay within 190 to 206 °C.

Compound `CCOC(=O)C(Cc1ccc(OC)cc1)c1cc2cc(C#N)ccc2s1` (stereo not given) came in with a melting point of 93 to 96 °C.

With `CS(=O)c1ccccc1-c1cc2[nH]c3ccc(O)cc3c2c2c1C(=O)NC2=O` (stereo not given), the melting point was in the range of 321 to 323 °C.

With `O=C(O)c1cccc2ncc(C3CCCCC3)cc12`, the melting point was more than 280 °C.

Take `Cc1nc2c(N)nc3cccnc3c2n1CC1(O)CCN(C(=O)N2CCOCC2)CC1`: the melting point fell in the range of 245 to 248 °C.

In turn, `NC(=O)CCNC(=O)C1CCCN1C(=O)OCc1ccccc1` (stereo not given) came in with a melting point of 151 to 152 °C.

In turn, `Cc1c(NCc2ccccc2)c2c(c3c1C(c1ccc(C(C)C)cc1)CO3)CCC2` (stereo not given) came in with a melting point of 95 to 96 °C.

Take `CCCN1C(=O)C2(c3ccccc3)CC(c3ccc(N)cc3)(C2)C1=O`: the melting point was in the range of 144 to 145 °C.

As to `N#Cc1c(-c2ccccc2)[nH]c(Cl)c1Cl`, the melting point is 254 to 255 °C.

For `CC(C)(CO)C(=O)N(O)Cc1ccccc1Cl`, the melting point fell in the range of 130 to 132 °C.

In the case of `O=C(N[C@@H]1CCc2c(Br)ccc(N3CCNCC3)c2C1)c1ccc(N2CCOCC2)cc1`, the melting point is 228 to 229 °C.

As for `CCN1CCN(CCCOc2cc3ncc(C#N)c(Nc4ccc(Sc5nccn5C)c(Cl)c4)c3cc2OCCOC)CC1`, the melting point is 188 to 190 °C.

`CCCCNc1ccc(-c2nc(C(=O)Nc3nccs3)c(-c3cccc(OC)c3)[nH]2)cc1` came in with a melting point of 228 to 231 °C.

On to `CN1CCN(CC(=O)Nc2cccc3c2C(=O)c2c-3n[nH]c2-c2ccc(N3CCOCC3)cc2)CC1`, for which the melting point was found to be 258 °C.

For `CC(C)(C)OC(=O)NC1CCN(Cc2ccccc2)CC1`, the melting point was in the range of 112 to 120 °C.

For `O=C1CCn2c1ccc2C(=O)c1ccc(Cl)cc1`, the melting point was in the range of 165 to 166 °C.

For `Oc1ccc2c(-c3cccnc3)coc2c1`, the melting point lay within 167 to 168 °C.

Regarding `CN(C)Cc1csc(N(C)CC#CI)n1`, the melting point lay within 98 to 100 °C.

For `N#Cc1cnc2ccc(NC(=O)C#CCN3CCOCC3)cc2c1Nc1cccc(Br)c1`, the melting point is 112 to 115 °C.

The compound `Cc1ccc(NC(=O)Nc2ccc(Oc3cc(Cl)ncn3)cc2)cc1C(F)(F)F` had a melting point of 183 to 184 °C.

The compound `c1ccc(CNc2nnc(Cc3ccncc3)c3ccccc23)cc1` displayed a melting point of 137 to 138 °C.

For the compound `C=C[C@H](C)[C@@](N)(C(N)=O)c1ccccc1` (relative stereo), the melting point is 90 °C.

Compound `CS(=O)(=O)c1ccc(-c2cnn(-c3ccc(F)cc3F)c(=O)c2-c2ccc(F)cc2)cc1` came in with a melting point of 245 to 247 °C.

`CCCCOc1ccc(Cl)cc1C(=O)NCCc1ccc(CC(=O)OCC)cc1` displayed a melting point of 80 °C.

On to `CC(C)(C1OCCO1)C(O)(COc1ccc(F)cc1)Cn1cncn1` (stereo not given), for which the melting point lay in the range of 102 to 104 °C.

The compound `COc1cc(OC)cc(C(NCC(=O)Nc2c(C(C)C)cccc2C(C)C)c2ccccc2C)c1` (stereo not given) came in with a melting point of 138 to 139 °C.

For the compound `CCCCCCCCc1ccc(CCC(NC(C)=O)(C(=O)OCC)C(=O)OCC)cc1`, the melting point was 61 °C.

Consider `Cc1ccc(S(=O)(=O)N(C)c2ccc(Cl)cc2CO)cc1`, for which the melting point lay in the range of 130 to 132 °C.

With `CCCN1C(=O)C2(CC)CC(c3ccc(N)cc3)(C2)C1=O`, the melting point fell in the range of 124 to 125 °C.

`O=C(OC1CCCCCCC1)c1ncn2c1[C@@H]1CCCN1C(=O)c1c(Cl)cccc1-2` yielded a melting point of 183 to 184 °C.

On to `Cc1c(N2C(=O)CCC2=O)nc(C)n2c1c(CCCl)c1ccccc12`, for which the melting point was in the range of 232 to 234 °C.

For the compound `COc1nc(C)nc(NC(=O)NS(=O)(=O)c2ccccc2-c2cnn(C)c2)n1`, the melting point was 221 to 224 °C.

Consider `Cc1cscc1NC(=S)NC1CCCCC1N` (stereo not given), for which the melting point lay within 205 to 210 °C.

In turn, `Cc1[nH]c(=O)c2c(ccc3nc(Nc4c(Cl)cccc4Cl)n(C)c32)c1CCN1CCOCC1` yielded a melting point of 285 to 290 °C.

As to `Nc1cc(=O)n(Cc2ccc([N+](=O)[O-])cc2)[nH]1`, the melting point worked out at 182 °C.

`Cc1nc(Br)sc1C(=O)N[C@H](C)[C@](O)(Cn1cncn1)c1ccc(F)cc1F` returned a melting point of 155 to 163 °C.

On to `COC(=O)C1=C(O)c2sc(C(F)(F)F)cc2S(=O)(=O)N1`, for which the melting point lay within 168 to 170 °C.

For the compound `CN(c1ccc(Cl)cc1)S(=O)(=O)c1cc(C(=O)Nc2ccc(S(C)=O)cc2)ccn1` (stereo not given), the melting point lay in the range of 172 to 174 °C.

`CN1C(=O)C(S)=C(S)C1=O` came in with a melting point of 145 to 148 °C.

Take `Nc1ccccc1C(=O)c1cccc(O)c1`: the melting point lay in the range of 130 to 132 °C.

The compound `Cc1nc(-c2cccc(Cl)c2)c2cc(C(=O)c3ccc(Cl)cc3)ccc2n1` showed a melting point of 182 °C.

As for `COc1cc(OCCCCl)ccc1C(C)=O`, the melting point lay within 47 to 49 °C.

Regarding `CC(=O)NC1CCNC(c2ncccc2Cl)C1` (stereo not given), the melting point lay within 118 to 120 °C.

As to `CCOc1nc(F)cc2nc(=S)[nH]n12`, the melting point was 78 to 82 °C.

For the compound `CCN(CC)C(=O)n1cnc(S(=O)(=O)C(F)(F)Br)n1`, the melting point was 74 to 75 °C.

`Cc1ccc(C)c(OCCCC(C)(C)C(=O)Nc2cccc(C3=NCCCO3)c2)c1` yielded a melting point of 114 to 115 °C.

`CCCc1nc2c(N)nc3cc(-c4ccccc4)ccc3c2n1CCCON=C(C)C` registered a melting point of 164 to 165 °C.

On to `CCOC(=O)CCNC(=O)Nc1ccc([N+](=O)[O-])cc1O`, for which the melting point lay in the range of 115 to 116 °C.

Take `COc1nc(N)nc(-c2ccccc2)n1`: the melting point lay in the range of 159 to 160 °C.

In the case of `COc1c(Br)cc([N+](=O)[O-])cc1-c1c2ccccc2c(Br)c2sc(C)c(C)c12`, the melting point fell in the range of 204 to 205 °C.

The compound `Cc1cccc2c1N(Cc1ccccn1)C(=O)C(NC(=O)Nc1cccc(-c3nnn[nH]3)c1)N=C2c1ccccc1F` (stereo not given) registered a melting point of 174 to 182 °C.

For `COc1ccc(-c2nc(N3CCOCC3)sc2-c2ccc(OC)cc2)cc1`, the melting point lay within 133 to 135 °C.

For `O=C(/C=C/C(=O)c1ccc(Cl)cc1)c1ccc(Cl)cc1`, the melting point was in the range of 174 to 176 °C.

For `CC(C)n1cc2c3c(cccc31)C1CC(C(=O)NCCc3c[nH]cn3)CN(C)C1C2` (stereo not given), the melting point was in the range of 83 to 86 °C.

Consider `COc1ccc(C(=O)CCc2cccnc2)cc1`, for which the melting point was 76 to 78 °C.

`CNC(=O)C1CC(C)(C)Oc2ccc([N+](=O)[O-])cc21` (stereo not given): the melting point fell in the range of 161 to 162 °C.

`CCOC(=O)c1ccc(NC(=O)c2ccc(F)cc2)cc1` had a melting point of 172 to 174 °C.

`CCOC(=O)c1c[nH]c2nc(-c3ccncc3)c(F)cc2c1=O` showed a melting point of 280 to 285 °C.

As to `O=C(c1ccc(F)cc1)c1nc[nH]n1`, the melting point was 225 to 230 °C.

The compound `CCOCc1nc2c(N)nc3cc(O)ccc3c2n1CC(C)(C)NC(C)=O` gave a melting point of 140 °C.

As for `Cc1cc(-c2ccc(Cl)cc2)n2ncc(C#N)c2n1`, the melting point fell in the range of 285 to 287 °C.

For `COc1ccc(CCNC(=O)N(OC(C)=O)C(C)(C)C)cc1OC`, the melting point fell in the range of 123 to 125 °C.

For `Cc1c(NC(=O)c2ccc(-c3ccc(F)cc3)cc2)ccc2cc(CN3CCC(CC(N)=O)CC3)cnc12`, the melting point was in the range of 258 to 260 °C.

Regarding `CCCCc1c(C(=O)O)c2ccccc2n1C`, the melting point was 163 to 165 °C.

Consider `Cn1nnc2cc(OC3SCC(O)C(O)C3O)ccc21` (stereo not given), for which the melting point came to 220 °C.

`Cn1c(COc2ccc(CC3SC(=O)NC3=O)cc2)nc2cc(C(F)(F)F)cnc21` (stereo not given) came in with a melting point of 212 to 214 °C.

As for `Cc1ccc2c(c1)c(N1CCNCC1)c(C#N)c(=O)n2Cc1ccccc1`, the melting point was found to be 152 °C.

As to `Cc1oc(-c2ccccc2)nc1COc1ccc(COc2ncccc2C=CC(=O)O)cc1`, the melting point was in the range of 174 to 175 °C.

Compound `CNc1cc(C(=O)Nc2c(C)cc(C(F)(C(F)(F)F)C(F)(F)F)cc2C)ccc1C#N` gave a melting point of 204 to 206 °C.

For the compound `Cc1cc(CCCCCOc2c(C)cc(-c3noc(C)n3)cc2C)on1`, the melting point is 45 to 46 °C.
